Results: ChEMBL document CHEMBL1128008, “Synthesis of etoposide phosphate, BMY-40481: A water-soluble clinically active prodrug of etoposide” (Bioorg Med Chem Lett, 1994)
Calls of active or inactive are those of the source. The calls are words filed in the database; no cut-off is given here.

Columns and labels:
[1] = Plasma half life in dog; format: ADME, organism-based, Canis lupus familiaris
[2] = Plasma half life in human; format: ADME, cell-free
[3] = Plasma half life in monkey; format: ADME; conditions: cercopithecidae
[4] = Plasma half life in mouse; format: ADME, organism-based
B16 = test: Inhibitory activity administered was determined against sc B16 melanoma cells; Active; format: functional, organism-based; conditions: Mus musculus
Homo sapiens = test: Antitumor activity administered ip was determined in human model; Active; format: functional, organism-based
L1210 = test: Inhibitory activity administered was determined against ic L1210 leukemia cells; Active; format: functional; conditions: Mus musculus
P388 [5] = test: Inhibitory activity administered iv was determined against implanted P388 leukemia cells; Active; format: functional, organism-based; conditions: Mus musculus
P388 [6] = test: Inhibitory activity administered was determined against ic P388 leukemia cells; Active; format: functional; conditions: Mus musculus
Mus musculus = test: Antitumor activity administered ip, po was determined in murine model; Active; format: functional, organism-based

Row | Compound | half-life [1] [min] | half-life [2] [min] | half-life [3] [min] | half-life [4] [min] | Activity (B16) | Activity (Homo sapiens) | Activity (L1210) | Activity (P388 [5]) | Activity (P388 [6]) | Activity (Mus musculus)
1 | COc1cc([C@H]2c3cc4c(cc3[C@@H](O[C@@H]3O[C@H]5CO[C@@H](C)O[C@H]5[C@H](O)[C@@H]3O)[C@H]3COC(=O)[C@H]23)OCO4)cc(OC)c1OP(=O)([O-])[O-].[Na+].[Na+] | 124 | 45 | 39 | 39 | Active | Active | Active | Active | Active | 
2 | COc1cc(C2c3cc4c(cc3[C@@H](O[C@@H]3O[C@@H]5CO[C@@H](C)O[C@H]5[C@H](O)[C@H]3O)[C@H]3COC(=O)[C@H]23)OCO4)cc(OC)c1O (single isomer, unassigned) |  |  |  |  |  | Active |  |  |  | Active
